{"source": "patent US6576620B2", "about": "“Method of identifying partial adenosine A1 receptor agonists” (CV Therapeutics, Inc., priority 1999, dated 2003)", "key": {"[1]": {"tested_on": "guinea pig isolated heart", "experiment": "A-V nodal conduction time / S-H interval, isolated perfused heart", "settings": "for second-degree AV block: CPA at 30 nM, Compound 6 at all tested concentrations; for concentration causing an increase of the S-H interval by 13 msec: comparable submaximal responses", "method": "This method evaluates the potencies of compounds to cause coronary vasodilation (A2A AdoR response) and to prolong A-V nodal conduction time (A1 AdoR response).\nRats and guinea pigs, of either sex weighing from 230 to 260 grams and 300 to 350 grams, respectively, were used in this study. Animals were anesthetized by peritoneal injection of a cocktail containing ketamine and xylazine (ketamine 100 mg, xylazine 20 mg/ml). The chest was opened and the heart quickly removed. The heart was briefly rinse in ice-cold Krebs-Henseleit solution (see below), and the aorta cannulated. The heart was then perfused at a flow rate of 10 ml/min with modified Krebs-Henseleit (K-H) solution containing NaCl 117.9, KCl 4.5, CaCl2 2.5, MgSO4 1.18, KH2PO4 1.18, pyruvate 2.0 mmol. The K-H solution (pH 7.4) was gassed continuously with 95% O2 and 5% CO2 and warmed to 35±0.50° C. The heart was electrically paced at a fixed cycle length of […] (250 beats/min) using a bipolar electrode place on the left atrium. The electrical stimuli were generated by a Grass stimulator (Model S48, W. Warwick, R.I.) and delivered through a Stimuli Isolation Unit (Model SIU5, Astro-Med, Inc., NY) as square-wave pulses of 3-msec in duration and amplitude of at least twice the threshold intensity.\nA1 adenosine receptor-mediated depression of A-V nodal conduction time (negative dromotropic effect) was measured. Atrial and ventricular surface electrograms in rats and His bundle electrogram in guinea pigs, were recorded during constant atrial pacing.\nThe effects of compounds on coronary conductance (A2A effect) and atrioventricular conduction time or stimulus-to-His-bundle (S-H) interval (A1 effect) was then determined. Hearts were instrumented for continuous recording of coronary perfusion pressure (A2A response) and atrioventricular (A-V) conduction time or S-H interval (A1 response). In each experiment, concentration-response relationship of compounds to increase coronary conductance and to prolong A-V conduction time or S-H interval was determined. After control measurements of CPP and A-V conduction time or S-H interval were made, progressive higher concentrations of the compound studied was administered until maximal coronary vasodilation and A-V nodal conduction time or S-H interval prolongation were achieved.\nGuinea pigs (Hartley) of either sex weighing 300-350 g were anaesthetized with methoxyflurane and killed by decapitation. The chest was cut open and the heart was removed quickly and rinsed in ice-cold modified Krebs-Henseleit (K-H) solution. The contents of the modified K-H solution were (in mM): NaCl 117.9, KCl 4.8, CaCl2 2.5, MgSO2 1.18, KH2PO4 1.2, Na2 EDTA 0.5, ascorbic acid 0.14, dextrose 5.5, pyruvic acid (sodium salt) 2.0, and NaHCO3 25. The K-H solution was continuously gassed with 95% oxygen and 5% CO2, and the pH was adjusted to a value of 7.4. To perfuse the heart by the Langendorff method, the transected aorta was slid onto a glass cannula and secured by a ligature. Retrograde perfusion of the aorta was initiated immediately at a constant flow of 10 ml min-′ with modified K-H solution warmed to 36.0±0.5° C. A side port in the cannula was used to connect the perfusion line to a Gould pressure transducer for measurement of coronary perfusion pressure. Coronary perfusion pressure was continuously recorded on a strip chart (Gould RS3400, Cleveland, Ohio) throughout each experiment. Coronary conductance (in ml min^−1 mmHg^−1) was calculated as the ratio of coronary flow (10 ml min^−1) to perfusion pressure (mm Hg). To facilitate the exit of fluid from the left ventricle, the leaflets of the mitral valve were trimmed with fine spring-handled scissors. When appropriate, hearts were paced at a constant rate using external electrodes. […]"}, "[2]": {"tested_on": "guinea pig isolated heart", "experiment": "Spontaneous atrial rate, isolated heart", "settings": "for atrial rate: maximal effect, controls 195±6 (Compound 6) and 198±15 (CPA)", "description": "(§1) Guinea pigs (Hartley) of either sex weighing 300-350 g were anaesthetized with methoxyflurane and killed by decapitation. The chest was cut open and the heart was removed quickly and rinsed in ice-cold modified Krebs-Henseleit (K-H) solution. The contents of the modified K-H solution were (in mM): NaCl 117.9, KCl 4.8, CaCl2 2.5, MgSO2 1.18, KH2PO4 1.2, Na2 EDTA 0.5, ascorbic acid 0.14, dextrose 5.5, pyruvic acid (sodium salt) 2.0, and NaHCO3 25. The K-H solution was continuously gassed with 95% oxygen and 5% CO2, and the pH was adjusted to a value of 7.4. To perfuse the heart by the Langendorff method, the transected aorta was slid onto a glass cannula and secured by a ligature. Retrograde perfusion of the aorta was initiated immediately at a constant flow of 10 ml min-′ with modified K-H solution warmed to 36.0±0.5° C. A side port in the cannula was used to connect the perfusion line to a Gould pressure transducer for measurement of coronary perfusion pressure. Coronary perfusion pressure was continuously recorded on a strip chart (Gould RS3400, Cleveland, Ohio) throughout each experiment. Coronary conductance (in ml min^−1 mmHg^−1) was calculated as the ratio of coronary flow (10 ml min^−1) to perfusion pressure (mm Hg). To facilitate the exit of fluid from the left ventricle, the leaflets of the mitral valve were trimmed with fine spring-handled scissors. When appropriate, hearts were paced at a constant rate using external electrodes. After completion of dissection and instrumentation (see below) for measurement of either atrial rate, stimulus-to-His bundle (S-H) interval, monophasic action potentials, or coronary perfusion pressure, each heart was allowed to equilibrate for 20-40 min before the administration of drug. Experimental interventions were always preceded and followed by control measurements. Criteria for exclusion of hearts from study were (1) a coronary perfusion pressure of less than 50 mm Hg, (2) absence of a stable coronary perfusion pressure during the equilibration period, and (3) inability to pace a heart at a constant rate throughout an experiment.\nTo measure spontaneous atrial rate in hearts that were not paced, a unipolar electrode was placed on the right atrium. A total of 10 atrial beats before, during, and after each intervention was recorded on chart paper moving at a rate of 50 mm per sec, and the average atrial rate at each time was determined from these records."}, "[3]": {"tested_on": "guinea pig isolated heart", "experiment": "Coronary conductance, isolated heart", "settings": "for EC50: Cavia porcellus; for maximal increase of coronary conductance: this study, Compound 6 at 100 μM", "method": "Coronary perfusion pressure (CPP) was measured using a pressure transducer, connected to the aortic cannula via a T-connector positioned approximately 3 cm above the heart. Coronary perfusion pressure was monitored throughout the experiment and recorded either on a chart recorder (Gould Recorder 2200S) or a computerized recording system (PowerLab/4S, ADInstruments Pty Ltd, Australia). Only hearts with CPP ranging from 60 to 85 mmHg (in the absence of drugs) were used in the study. Coronary conductance (in ml/min/mmHg) was calculated as the ratio between coronary perfusion rate (10 ml/min) and coronary perfusion pressure.\nas §1"}}, "note": "Entries after “also recorded” stand apart in the source; their conditions may differ."}
{"smiles": "OC[C@H]1O[C@@H](n2cnc3c(NC4CCCC4)ncnc32)[C@H](O)[C@@H]1O", "note": "[CPA, N^6-cyclopentyladenosine, reference compound]", "values": [{"measurement": "S-H interval", "setting": "[1]; CPA 30 nM, control 44±1 msec", "value": "87 ± 2", "unit": "ms"}, {"measurement": "S-H interval", "setting": "[1]; CPA 10 μM as printed, control 42±1 msec", "value": "59 ± 4", "unit": "ms"}, {"measurement": "S-H interval", "setting": "[1]; CPA 15 μM as printed, control 42±1 msec", "value": "81 ± 6", "unit": "ms"}, {"measurement": "S-H interval", "setting": "[1]; CPA 20 μM as printed, control 42±1 msec", "value": "103 ± 8", "unit": "ms"}, {"measurement": "second-degree AV block", "setting": "[1]", "value": "second-degree AV block occurred in all hearts; also recorded: caused second-degree AV block in all hearts"}, {"measurement": "S-H interval Efficacy", "setting": "[1]; Table 5, 2759 = CVT-2759", "value": "Full (Potent)"}, {"measurement": "concentration causing an increase of the S-H interval by 13 msec", "setting": "[1]", "value": 10, "unit": "nM"}, {"measurement": "EC50", "setting": "[2]; Cavia porcellus, read-out: EC50 to decrease atrial rate", "value": 68, "unit": "nM"}, {"measurement": "atrial rate", "setting": "[2]", "value": "1±1", "unit": "beats per minute"}, {"measurement": "coronary conductance", "setting": "[3]; CPA maximal, control 0.16±0.01", "value": "0.33±0.01", "unit": "ml min^−1 mmHg-^1"}, {"measurement": "EC50", "setting": "[3]; read-out: concentration of half-maximal increase of coronary conductance", "value": 71, "unit": "nM"}, {"measurement": "maximal increase of coronary conductance", "setting": "[3]", "value": "0.17±0.02", "unit": "ml min^−1 mmHg^−1"}]}
{"smiles": "CNC(=O)OC[C@H]1OC(n2cnc3c(N[C@@H]4CCOC4)ncnc32)[C@H](O)[C@@H]1O", "note": "(stereo partly drawn) [Compound 6 of Example 2, [(5-{6-[((3R)oxolan-3-yl)amino]purin-9-yl}(3 S,2R,4R)-3,4-dihydroxyoxolan-2-yl)methoxy]-N-methylcarboxamide]", "values": [{"measurement": "concentration at which effect on S-H interval reached a maximum", "setting": "[1]", "value": "30 to 100", "unit": "µM"}, {"measurement": "antagonism of S-H interval prolongation induced by CPA", "setting": "[1]; 10 μM compound", "value": "partially reversed the S-H interval prolongation induced by CPA"}, {"measurement": "increase of the S-H interval", "setting": "[1]; 10 μM compound", "value": 12, "unit": "ms"}, {"measurement": "increase of the S-H interval", "setting": "[1]; 10 μM compound in the presence of 50 nM CPX", "value": 4, "unit": "ms"}, {"measurement": "decrease of S-H interval", "setting": "[1]; 10 μM compound in the presence of iodotubercidin and EHNA", "value": 16, "unit": "ms"}, {"measurement": "S-H interval", "setting": "[1]; 10 μM compound in the presence of iodotubercidin and EHNA (80±6 msec before)", "value": "64 ± 2", "unit": "ms"}, {"measurement": "S-H interval", "setting": "[1]; 10 μM compound, control 46±2 msec", "value": "58 ± 2", "unit": "ms"}, {"measurement": "second-degree AV block", "setting": "[1]", "value": "did not cause second-degree A-V block in any heart"}, {"measurement": "EC50", "setting": "[1]; Cavia porcellus, electrically paced heart, read-out: EC50 to increase the S-H interval", "value": 3100, "unit": "nM"}, {"measurement": "concentration causing an increase of the S-H interval by 13 msec", "setting": "[1]", "value": "10,000 nM"}, {"measurement": "S-H interval at maximum effect", "setting": "[1]; control 45±1 msec", "value": "60 ± 3", "unit": "ms"}, {"measurement": "maximum increase of S-H interval", "setting": "[1]; electrically paced heart", "value": 33, "unit": "%"}, {"measurement": "adenosine concentration causing second-degree AV block", "setting": "[1]; presence of 4 μM Compound 6 of Example 2", "value": 8, "unit": "µM"}, {"measurement": "adenosine concentration causing second-degree AV block", "setting": "[1]; presence of 10 μM Compound 6 of Example 2", "value": 20, "unit": "µM"}, {"measurement": "atrial rate", "setting": "[2]", "value": "169±7", "unit": "beats per minute"}, {"measurement": "decrease of atrial rate", "setting": "[2]; spontaneously-beating hearts", "value": 13, "unit": "%"}, {"measurement": "coronary conductance", "setting": "[3]; 10 μM compound, control 0.17±0.01", "value": "0.185±0.01", "unit": "ml min^−1 mmHg^−1"}, {"measurement": "coronary conductance", "setting": "[3]; 100 μM compound, control 0.17±0.01", "value": "0.26±0.02", "unit": "ml min^−1 mmHg^−1"}, {"measurement": "EC50", "setting": "[3]; estimate may be falsely low, limited solubility, read-out: concentration of half-maximal response (EC50), increase of coronary conductance", "value": 31000, "unit": "nM"}, {"measurement": "effect on coronary conductance", "setting": "[3]; concentrations ≦10 μM", "value": "did not significantly change the coronary conductance"}, {"measurement": "maximal increase of coronary conductance", "setting": "[3]", "value": "0.09±0.01", "unit": "ml min^−1 mmHg^−1"}]}
